What follows are molecules tested against hcGAS (Homo sapiens, UniProt Q8N884) (assay: hcGAS LCMS assay (direct measurement of cGAMP production)). Settings: 0.5 nM hcGAS, 100 μM ATP, 100 μM GTP, 25 nM dsDNA, 4 h incubation.
Format: biochemical
Protocol: cGAS catalyzes the cyclization of ATP and GTP to produce cGAMP, which is the activating ligand of STING. Human cGAS (hcGAS) inhibition can thus be quantified by measuring how much cGAMP is formed either indirectly, by monitoring ATP-depletion as in the hcGAS Kinase-Glo assay (as described below), or directly, such as using the hcGAS LCMS assay (as described below).
Compounds were tested for their h-cGAS inhibition activity using direct measurement of cGAMP production by LC/MS. Briefly, compounds were incubated with enzyme and substrates for 4 hours (see Table C), before the reaction was stopped with 3 volumes of 70/30 Acetonitrile/H2O mix containing 0.15 mM cGAMP-^13C10^5N5 as internal standard and mixed for […]. After centrifugation (3700 rpm, 10 min, 10° Celsius), […] of each reaction was collected and mixed to equal volume of Acetonitrile. Samples were then analyzed on Qexective (Column: XBridge BEH Amide Column, 130 Å, 3.5 μm, 3 mm×50 mm, Mobile phase A: 10 mM Ammonium acetate in 95/5% H2O/Acetonitrile (0.5% DMSO), Mobile phase B: Acetonitrile (0.5% DMSO).
The results of the assay, expressed as IC50 values, are reported in Table D with the following designations: A represents an IC50 value<0.005 μM; B represents an IC50 value≥0.005 μM and <0.02 μM, C represents an IC50 value≥0.02 μM and <0.06 μM; D represents an IC50 value≥0.06 and <0.2 μM; E represents an IC50 value≥0.2.

hcGAS, sequence (Q8N884 whole entry): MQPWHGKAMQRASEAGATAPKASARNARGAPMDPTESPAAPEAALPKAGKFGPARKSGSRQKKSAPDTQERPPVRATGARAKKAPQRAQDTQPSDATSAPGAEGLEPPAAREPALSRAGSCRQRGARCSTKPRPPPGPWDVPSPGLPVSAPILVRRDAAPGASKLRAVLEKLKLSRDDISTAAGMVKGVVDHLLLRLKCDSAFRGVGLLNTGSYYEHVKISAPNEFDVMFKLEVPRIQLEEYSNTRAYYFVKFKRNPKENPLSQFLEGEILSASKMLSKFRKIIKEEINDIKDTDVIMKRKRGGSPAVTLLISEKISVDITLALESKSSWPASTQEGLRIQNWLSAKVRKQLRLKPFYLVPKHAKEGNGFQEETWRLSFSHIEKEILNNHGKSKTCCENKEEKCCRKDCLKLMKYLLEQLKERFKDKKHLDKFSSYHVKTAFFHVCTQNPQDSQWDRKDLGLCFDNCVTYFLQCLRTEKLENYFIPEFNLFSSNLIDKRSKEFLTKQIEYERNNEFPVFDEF

Structure (SMILES)	IC50 [µM]
COc1c(N[C@H]2CCC[C@@H]2OC)cc(C(=O)Nc2nnc(-n3nccc3C)s2)oc1=O (single isomer, unassigned) [4*]	0.005 to 0.02
COCCNc1cc(C(=O)Nc2nnc(-c3cscc3C#N)s2)oc(=O)c1OC [Compound 138, N-[5-(4-cyanothiophen-3-yl)-1,3,4-thiadiazol-2-yl]-5-methoxy-4-[(2-methoxyethyl)amino]-6-oxopyran-2-carboxamide]	≥ 0.2
COc1c(NC2CC3(COC3)C2)cc(C(=O)Nc2nnc(-n3nccc3C)s2)oc1=O [Compound 50, 4-((2-oxaspiro[3.3]heptan-6-yl)amino)-3-methoxy-N-(5-(5-methyl-1H-pyrazol-1-yl)-1,3,4-thiadiazol-2-yl)-2-oxo-2H-pyran-6-carboxamide]	0.06 to 0.2
COCC(C)(C)COc1c(NC23CC(C2)C3)cc(C(=O)Nc2nnc(-n3nccc3C)s2)oc1=O [Compound 149, 4-(bicyclo[1,1,1]pentan-1-ylamino)-(3-methoxy-2,2-dimethylpropoxy)-N-(5-(5-methyl-1H-pyrazol-1-yl)-1,3,4-thiadiazol-2-yl)-2-oxo-2H-pyran-6-carboxamide]	0.005 to 0.02
COc1c(N[C@@H]2CCC[C@@H]2C#N)cc(C(=O)Nc2nnc(-n3nccc3C)s2)oc1=O (single isomer, unassigned) [Compound 73]	< 0.005
COc1c(N[C@@H]2CCN(C)C2=O)cc(C(=O)Nc2nnc(-n3nccc3C)s2)oc1=O (single isomer, unassigned) [72*]	0.005 to 0.02
COc1c(N[C@H]2CC[C@H]2OC)cc(C(=O)Nc2nnc(-c3c(Cl)ccn3C)s2)oc1=O (single isomer, unassigned) [Compound 133*]	0.005 to 0.02
COCCNc1cc(C(=O)Nc2nnc(-c3sccc3C#N)s2)oc(=O)c1OC [Compound 145, N-(5-(3-cyanothiophen-2-yl)-1,3,4-thiadiazol-2-yl)-3-methoxy-4-((2-methoxyethyl)amino)-2-oxo-2H-pyran-6-carboxamide]	≥ 0.2
COc1c(N[C@H]2CCC[C@H]2C#N)cc(C(=O)Nc2nnc(-n3nccc3C)s2)oc1=O (single isomer, unassigned) [Compound 74]	< 0.005
COCCOc1c(N[C@@H]2CCC[C@@H]2O)cc(C(=O)Nc2nnc(-c3c(Cl)ccn3C)s2)oc1=O [Compound 86, N-(5-(3-chloro-1-methyl-1H-pyrrol-2-yl)-1,3,4-thiadiazol-2-yl)-4-(((1R,2S)-2-hydroxycyclopentyl)amino)-3-(2-methoxyethoxy)-2-oxo-2H-pyran-6-carboxamide]	< 0.005
COc1c(N[C@H]2CC[C@@H](OC)C2)cc(C(=O)Nc2nnc(-n3nccc3C)s2)oc1=O (single isomer, unassigned) [124*]	0.005 to 0.02
COc1c(N[C@H]2CC[C@H]2OC)cc(C(=O)Nc2nnc(-n3nccc3C)s2)oc1=O (single isomer, unassigned) [123*]	0.005 to 0.02
COc1c(NC[C@H]2CCCO2)cc(C(=O)Nc2nnc(-n3nccc3C)s2)oc1=O [Compound 20, (R)-3-methoxy-N-(5-(5-methyl-1H-pyrazol-1-yl)-1,3,4-thiadiazol-2-yl)-2-oxo-4-(((tetrahydrofuran-2-yl)methyl)amino)-2H-pyran-6-carboxamide]	0.02 to 0.06
COc1c(N[C@@H]2CC[C@@H]2OC)cc(C(=O)Nc2nnc(-c3c(Cl)ccn3C)s2)oc1=O (single isomer, unassigned) [Compound 132*]	0.005 to 0.02
COc1c(NC23CC(O)(C2)C3)cc(C(=O)Nc2nnc(-n3nccc3C)s2)oc1=O [Compound 126, 4-((3-hydroxybicyclo[1.1.1]pentan-1-yl)amino)-3-methoxy-N-(5-(5-methyl-1H-pyrazol-1-yl)-1,3,4-thiadiazol-2-yl)-2-oxo-2H-pyran-6-carboxamide]	0.005 to 0.02
COC[C@@]1(Nc2cc(C(=O)Nc3nnc(-n4nccc4C)s3)oc(=O)c2OC)CCOC1 (single isomer, unassigned) [Compound 100*]	0.005 to 0.02
COc1c(N[C@@H]2CCC[C@@H]2OC)cc(C(=O)Nc2nnc(-n3nccc3C)s2)oc1=O (single isomer, unassigned) [215*]	0.005 to 0.02

Now from value to molecule:

IC50 [µM]	Structure (SMILES)
0.005 to 0.02	COc1c(N2CC[C@@H](OC)C2=O)cc(C(=O)Nc2nnc(-n3nccc3C)s2)oc1=O [Compound 150, (R)-3-methoxy-4-(3-methoxy-2-oxopyrrolidin-1-yl)-N-(5-(5-methyl-1H-pyrazol-1-yl)-1,3,4-thiadiazol-2-yl)-2-oxo-2H-pyran-6-carboxamide]
0.005 to 0.02	COc1c(N[C@@H]2CCC[C@@H]2OCC(F)F)cc(C(=O)Nc2nnc(-n3nccc3C)s2)oc1=O [Compound 171, 4-(((1R, 2S)-2-(2,2-difluoroethoxy)cyclopentyl)amino)-3-methoxy-N-(5-(5-methyl-1H-pyrazol-1-yl)-1,3,4-thiadiazol-2-yl)-2-oxo-2H-pyran-6-carboxamide]
0.005 to 0.02	COC[C@@H](Cc1ccccc1)Nc1cc(C(=O)Nc2nnc(-n3nccc3C)s2)oc(=O)c1OC [Compound 170, (R)-3-methoxy-4-((1-methoxy-3-phenylpropan-2-yl)amino)-N-(5-(5-methyl-1H-pyrazol-1-yl)-1,3,4-thiadiazol-2-yl)-2-oxo-2H-pyran-6-carboxamide]
0.005 to 0.02	COc1c(N(C)[C@@H]2CCC[C@@H]2OC)cc(C(=O)Nc2nnc(-n3nccc3C)s2)oc1=O (racemic) [Rac-153, 3-methoxy-4-(((cis)-2-methoxycyclopentyl)(methyl)amino)-N-(5-(5-methyl-1H-pyrazol-1-yl)-1,3,4-thiadiazol-2-yl)-2-oxo-2H-pyran-6-carboxamide]
< 0.005	Cc1ccnn1-c1nnc(NC(=O)c2cc3c(c(=O)o2)OCCN3[C@H]2CCC[C@H]2C#N)s1 [Compound 224, 1-((1S,2R)-2-cyanocyclopentyl)-N-(5-(5-methyl-1H-pyrazol-1-yl)-1,3,4-thiadiazol-2-yl)-5-oxo-1,2,3,5-tetrahydropyrano[3,4-b][1,4]oxazine-7-carboxamide]
0.02 to 0.06	COc1c(N2C[C@H](OC)CC2=O)cc(C(=O)Nc2nnc(-n3nccc3C)s2)oc1=O [Compound 154, (R)-3-methoxy-4-(4-methoxy-2-oxopyrrolidin-1-yl)-N-(5-(5-methyl-1H-pyrazol-1-yl)-1,3,4-thiadiazol-2-yl)-2-oxo-2H-pyran-6-carboxamide]
0.005 to 0.02	COc1c(N2CCC[C@H]2CC#N)cc(C(=O)Nc2nnc(-n3nccc3C)s2)oc1=O [Compound 175, (S)-4-(2-(cyanomethyl)pyrrolidin-1-yl)-3-methoxy-N-(5-(5-methyl-1H-pyrazol-1-yl)-1,3,4-thiadiazol-2-yl)-2-oxo-2H-pyran-6-carboxamide]
0.005 to 0.02	Cc1ccnn1-c1nnc(NC(=O)c2cc3c(c(=O)o2)OCCN3[C@@H]2CCC[C@@H]2C#N)s1 [Compound 223, 1-((1R,2S)-2-cyanocyclopentyl)-N-(5-(5-methyl-1H-pyrazol-1-yl)-1,3,4-thiadiazol-2-yl)-5-oxo-1,2,3,5-tetrahydropyrano[3,4-b][1,4]oxazine-7-carboxamide]
0.005 to 0.02	COc1c(N2C[C@@H](OC)CC2=O)cc(C(=O)Nc2nnc(-n3nccc3C)s2)oc1=O [Compound 155, (S)-3-methoxy-4-(4-methoxy-2-oxopyrrolidin-1-yl)-N-(5-(5-methyl-1H-pyrazol-1-yl)-1,3,4-thiadiazol-2-yl)-2-oxo-2H-pyran-6-carboxamide]
≥ 0.2	COc1c(N[C@@H]2c3ccccc3C[C@@H]2O)cc(C(=O)Nc2nnc(-n3nccc3C)s2)oc1=O (racemic) [Rac-28, 4-(((cis)-2-hydroxy-2,3-dihydro-1H-inden-1-yl)amino)-3-methoxy-N-(5-(5-methyl-1H-pyrazol-1-yl)-1,3,4-thiadiazol-2-yl)-2-oxo-2H-pyran-6-carboxamide]
< 0.005	COc1c(NC[C@H](C)OC)cc(C(=O)Nc2nnc(-c3c(Cl)ccn3C)s2)oc1=O [Compound 193, (S)-N-(5-(3-chloro-1-methyl-1H-pyrrol-2-yl)-1,3,4-thiadiazol-2-yl)-3-methoxy-4-((2-methoxypropyl)amino)-2-oxo-2H-pyran-6-carboxamide]
0.06 to 0.2	COC[C@H](Cc1ccccc1)Nc1cc(C(=O)Nc2nnc(-n3nccc3C)s2)oc(=O)c1OC [Compound 165, (S)-3-methoxy-4-((1-methoxy-3-phenylpropan-2-yl)amino)-N-(5-(5-methyl-1H-pyrazol-1-yl)-1,3,4-thiadiazol-2-yl)-2-oxo-2H-pyran-6-carboxamide]
0.005 to 0.02	COC[C@H]1CC[C@H](COC)N1c1cc(C(=O)Nc2nnc(-n3nccc3C)s2)oc(=O)c1OC (racemic) [Rac-209, 4-((trans)-2,5-bis(methoxymethyl)pyrrolidin-1-yl)-3-methoxy-N-(5-(5-methyl-1H-pyrazol-1-yl)-1,3,4-thiadiazol-2-yl)-2-oxo-2H-pyran-6-carboxamide]
0.06 to 0.2	COCCNc1cc(C(=O)Nc2nnc(-c3c(Cl)nsc3Cl)s2)oc(=O)c1OC [Compound 156, N-(5-(3,5-dichloroisothiazol-4-yl)-1,3,4-thiadiazol-2-yl)-3-methoxy-4-((2-methoxyethyl)amino)-2-oxo-2H-pyran-6-carboxamide]
